In patent US20080194020A1, “Methods For Producing Dendritic Cells That Have Acquired Ctl-Inducing Ability” (Medical and Biological Laboratories Co., Ltd., priority 2004, published 2008):
Entries after “also recorded” stand apart in the source; their conditions may differ.

Tests used:
Type in all cases: cell-based, mouse
DC2.4 cells [1] = experiment: MHC class I cross-presentation by DC2.4 cells to OT-I CD8+ T cells (IL-2 ELISA)
Source text: Whether knock-down of cellular components involved in ERAD decreases the cross-presentation of exogenous OVA antigen was examined using a system for evaluating the level of antigen presentation, which uses naive CD8^+ T cells from OT-I mice and DC2.4 cells. The DC2.4 cells used as a model of dendritic cells are of the H-2Kb mouse MHC class I haplotype. OT-I (H-2Kb) mice are transgenic mice expressing a T cell receptor (TCRα and β) that recognizes an antigenic peptide (SIINFEKL) (SEQ ID NO: 15) derived from OVA presented on the H-2Kb molecules. The CD8^+ cells of OT-I mice are activated when they recognize OVA peptides presented by BMDCs derived from H-2Kb mice or by DC2.4 cells. When OVA or bOVA is incubated with and affixed onto DC2.4 cells and the cells are further incubated with naive CD8^+ T cells of OT-I mice, the amount of IL-2 produced by OT-I CD8^+ T cells serves as an index of T-cell stimulation as a result of OVA antigen presented by DC2.4 cells.
Parental or knocked-down DC2.4 cells were pre-incubated in a culture medium supplemented with 50 μg mL^−1 polymyxin B for 30 minutes in the presence or absence of lactacystin or MG-132, and incubated with OVA (250 μg mL^−1) or SIINFEKL peptides (10 ng mL^−1) for six hours. The cells were washed, fixed with 1% paraformaldehyde, and aliquoted into microtiter plates (5×10^4 per well). 5×10^4 CD8^+ T cells purified from splenocytes of OT-1 mice using magnetic beads were added to each well and after a 24-hour incubation, the IL-2 secretion was measured by ELISA (BD Biosciences) in triplicate.
DC2.4 cells were incubated with OVA (0, 50, or 250 μg/mL) in RPMI1640/10c% FCS for six hours at 37° C., in the presence or absence of pig-derived HSP90 (10 μg/mL). After washing away the antigen and HSP, OT-I CD8^+ T cells were added, cells were cultured overnight at 37° C., and the amount of IL-2 comprised in the supernatant was measured by the ELISA method.
The timing of the addition of HSP90 (10 μg/mL) and OVA (250 μg/mL) to DC2.4 cells was varied, and the effect on class I antigen presentation was observed. (i) HSP90 was added first, DC2.4 cells were washed, and then OVA was added. (ii) HSP90 and OVA were added simultaneously to DC2.4 cells. (iii) OVA was added first, and after washing DC2.4 cells, HSP90 was added. The results obtained under these three conditions were compared. As a control for all these conditions, an experiment in which only OVA, but not HSP90, was added was also carried out.
Under condition (i), HSP90 was added to DC2.4 cells, the cells were cultured for 30 minutes and then washed to remove HSP90. Next, OVA was added and the cells were cultured for three hours. Thereafter, OVA was removed by washing, and cells were cultured in just the culture medium for three hours. DC2.4 cells activated with OVA by the above procedure were plated in a 96-well plate, OT-I mouse-derived CD8^+ T cells were added to this, and after culturing overnight, the amount of IL-2 released into the supernatant was measured by ELISA.
Under condition (ii), OVA and HSP90 were added simultaneously to DC2.4 cells, cells were cultured for three hours, then washed, and cultured in just the culture medium for three hours. Thereafter, the procedures to investigate the activation of OT-I mouse-derived CD8^+ T cells was carried out similarly to in (i) above.
Under condition (iii), OVA was first added to DC2.4 cells, cells were cultured for three hours, and then washed to remove OVA. Next, HSP90 was added, and the cells were cultured for another three hours. The procedures that follow were carried out similarly to that of (i) and (ii). Meanwhile, timings were set such that the incubation times during the stage in which cells are in contact with OVA and the stage at which OVA has been taken up were the same under conditions (i) to (iii).

[2] = tested on: bone marrow-derived dendritic cells (BMDCs); experiment: MHC class II antigen presentation by BMDCs to OT-II CD4+ T cells (IL-2 ELISA); settings: HSP90 10 μg/mL added at the same time as OVA (0, 50 or 250 μg/mL)
Procedure: Mouse bone marrow-derived dendritic cells (BMDCs) were prepared as follows: cells were taken out from mouse bone marrow and cultured for five days in RPMI medium containing GM-CSF and 5% FCS, during which the medium was partially exchange. This culturing method leads to growth of macrophages, dendritic cells, and such; therefore, dendritic cells alone were collected using CD11c magnetic beads, and these cells were used as bone marrow-derived dendritic cells (BMDCs).
The bone marrow-derived dendritic cells (BMDCs) prepared as above or the mouse dendritic cell line DC2.4 cells were plated in a 96-well plate at 5×10^4 cells per well. Next, in the presence of 50 μg/mL of polynyxin B, which is an endotoxin inhibitor, OVA (0, 50, or 250 μg/mL)and HSP90 (0 or 10 μg/mL) were added, the total fluid volume was adjusted to 200 μL, and this was cultured overnight at 37° C. Since endotoxin is known to activate DCs, polymyxin B was added to eliminate the effects of its contamination of reagents, equipment, and such. After culturing, the aforementioned cells in the wells were washed twice to remove the remaining OVA and HSP90 that were not taken up by the cells. […] The wells were centrifuged, the supernatant was collected, and the amount of IL-2 in the supernatant was measured by ELISA.

DC2.4 cells [3] = experiment: Polyubiquitination of antigenic protein taken up by DC2.4 cells (SDS-PAGE, Western blot with anti-polyubiquitin antibody); settings: DC2.4 cells incubated with GST-OVA in the presence or absence of Hsp90
Procedure: There are reports that when the KDEL sequence (Lys-Asp-Glu-Leu) (SEQ ID NO: 3), an endoplasmic reticulum localization sequence, is added to the carboxyl terminus of a protein localized in the ER lumen, the protein is repeatedly transported between the ER and Golgi apparatus, and ERAD of that protein is promoted. Therefore, DC2.4 cells were made to take up OVA with KDEL (SEQ ID NO: 3) added to its C-terminus, and OVA that was polyubiquitinated after uptake was observed by SDS-PAGE and Western blotting. OVA to which a KDEL sequence (SEQ ID NO: 3) was added was constructed and expressed as follows: using a plasmid comprising a DNA sequence encoding OVA as a template, PCR was performed using oligo-1 (SEQ ID NO: 10) and oligo-2 (SEQ ID NO: 11) as primers. The amplified PCR product of approximately 1100 bp was introduced into a pCR-Blunt vector (Invitrogen) to obtain vector-1. Oligo-3 (SEQ ID NO: 12) and oligo-4 (SEQ ID NO: 13) were annealed, and the obtained gene fragment of approximately 100 bp was introduced into the pCR-Blunt vector to obtain vector-2. Vector-2 was digested with SpeI, the obtained gene fragment of approximately 130 bp was introduced into vector-1 that had been digested with NheI to obtain vector-3. An approximately 1250-bp gene fragment (OVA-KDEL) obtained when vector-3 was digested with BamHI/SpeI was introduced into a vector for gene expression, and then expressed. […]

DC2.4 cells [4] = experiment: Uptake of antigenic protein into DC2.4 cells
Procedure: Next, DC2.4 cells were incubated for a set amount of time with OVA in the presence or absence of lactacystin (LC), and OVA taken up into the cells was measured. OVA taken up into cells in the presence or absence of Hsp90 was measured similarly.

BMDCs = experiment: MHC class I antigen presentation by BMDCs to OT-I CD8+ cells; settings: BMDCs incubated with OVA in the presence or absence of HSP90

For “HSP90: pig-derived HSP90, molecular chaperone (heat shock protein) of about 90 kDa; porcine sequence SEQ ID NO: 1”, the “effect on OVA antigen presentation to OT-I CD8+ T cells (IL-2)” value (DC2.4 cells [1]; DC2.4 cells, OVA 0, 50 or 250 μg/mL, six hours, pig-derived HSP90 10 μg/mL versus OVA alone) was “a stronger antigen presentation was observed; also recorded: increase antigen presentation”, the “Hsp90 concentration dependence of antigen presentation ability” value (DC2.4 cells [1]; DC2.4 cells, Hsp90 10 μg/mL and 50 μg/mL) was “increased in an Hsp90 concentration-dependent manner; also recorded: antigen-presenting ability increases in a manner dependent on Hsp90 concentration” and the “effect on IL-2 production versus OVA-only control” value (DC2.4 cells [1]; condition (i): HSP90 added first, cells washed, then OVA) was “cannot be observed unless it is added simultaneously”. For the same substance, the “effect on IL-2 production versus OVA-only control” value (DC2.4 cells [1]; condition (ii): HSP90 10 μg/mL and OVA 250 μg/mL added simultaneously to DC2.4 cells) was “increase in the amount of IL-2 production”, the “effect on IL-2 production versus OVA-only control” value (DC2.4 cells [1]; condition (iii): OVA added first, cells washed, then HSP90) was “not to yield any effect” and the “effect on IL-2 production by OT-II CD4+ T cells (MHC class II presentation)” value [2] was “not enhanced”. The “effect on polyubiquitination of GST-OVA taken up” value (DC2.4 cells [3]) was “the increase in polyubiquitination in the presence of HSP90 is very pronounced”, the “effect on polyubiquitination of GST-OVA taken up” value (DC2.4 cells [3]; listed as Hsp90) was “more strongly polyubiquitinated” and the “effect on OVA taken up into cells” value (DC2.4 cells [4]; DC2.4 cells incubated with OVA in the presence or absence of Hsp90 and lactacystin) was “take up OVA into cells more efficiently; also recorded: uptake of OVA increased”. The “effect on amount of GST-OVA taken up” value (DC2.4 cells [4]; FIG. 10 lane 4 versus lane 3, presence or absence of HSP90) was “the increase in the amount taken up in the presence of HSP90 is not great” and the “effect on OVA antigen presentation to OT-I CD8+ cells” value (BMDCs) was “increase antigen presentation”.
